Source: ChEMBL document CHEMBL4346691, “GABA allosteric modulators: An overview of recent developments in non-benzodiazepine modulators” (Eur J Med Chem, 2019)

Assays:
[1] = Inhibition of BZD receptor (unknown origin); set-up: species or system Homo sapiens
[2] = Binding affinity to recombinant human GABA-A alpha2beta3gamma2 receptor expressed in L(tk) cells; assay type: cell-based
[3] = Displacement of [3H]-Flumazenil from GABAA/BZD receptor in rat cortical membranes incubated for 40 mins by radioligand binding assay; assay type: cell membranes
[4] = target: T1, GABA-A receptor; alpha-1/beta-2/gamma-2 (Homo sapiens) (UniProt P14867+P47870+P18507); test: Positive allosteric modulation of human GABA-A alpha1beta2gamma2S receptor expressed in Xenopus laevis oocytes assessed as increase in GABA-induced chloride channel current by two-electrode voltage clamp method; assay type: cell-based
[5] = target: T2, GABA-A receptor; alpha-1/beta-2/gamma-2 (Homo sapiens, UniProt P14867+P18507+P47870); test: Positive allosteric modulation of human GABA-A alpha1beta2gamma2S receptor expressed in Xenopus laevis oocytes assessed as increase in GABA-induced chloride channel current by two-electrode voltage clamp method relative to control; assay type: cell-based
T2 sequence (P14867 whole entry): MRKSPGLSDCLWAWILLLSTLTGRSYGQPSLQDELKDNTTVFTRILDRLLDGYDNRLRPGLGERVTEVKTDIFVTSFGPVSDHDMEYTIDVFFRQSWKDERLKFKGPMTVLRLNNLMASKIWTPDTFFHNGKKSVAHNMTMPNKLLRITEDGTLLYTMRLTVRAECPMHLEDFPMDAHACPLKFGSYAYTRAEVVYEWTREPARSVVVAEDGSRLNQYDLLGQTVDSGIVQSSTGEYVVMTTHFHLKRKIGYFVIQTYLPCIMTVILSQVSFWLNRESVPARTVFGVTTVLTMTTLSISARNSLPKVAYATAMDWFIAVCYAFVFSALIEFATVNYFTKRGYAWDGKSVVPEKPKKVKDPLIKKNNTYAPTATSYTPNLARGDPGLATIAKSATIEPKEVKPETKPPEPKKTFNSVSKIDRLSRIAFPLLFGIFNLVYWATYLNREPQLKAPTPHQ
T2 sequence (P47870 whole entry): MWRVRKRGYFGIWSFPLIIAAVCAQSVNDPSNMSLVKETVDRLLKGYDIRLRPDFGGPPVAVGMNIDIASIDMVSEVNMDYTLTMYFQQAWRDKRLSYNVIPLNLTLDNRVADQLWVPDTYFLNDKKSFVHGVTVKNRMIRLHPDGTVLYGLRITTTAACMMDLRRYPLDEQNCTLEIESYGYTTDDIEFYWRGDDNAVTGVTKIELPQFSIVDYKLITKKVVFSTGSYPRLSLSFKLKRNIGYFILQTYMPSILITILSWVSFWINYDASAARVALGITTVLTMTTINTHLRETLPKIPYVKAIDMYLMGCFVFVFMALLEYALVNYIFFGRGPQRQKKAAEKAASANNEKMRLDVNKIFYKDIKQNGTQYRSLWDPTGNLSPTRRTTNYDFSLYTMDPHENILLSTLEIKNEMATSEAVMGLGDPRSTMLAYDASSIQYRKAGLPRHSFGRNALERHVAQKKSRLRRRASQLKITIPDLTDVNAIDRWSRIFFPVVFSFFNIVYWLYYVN
T2 sequence (P18507 whole entry): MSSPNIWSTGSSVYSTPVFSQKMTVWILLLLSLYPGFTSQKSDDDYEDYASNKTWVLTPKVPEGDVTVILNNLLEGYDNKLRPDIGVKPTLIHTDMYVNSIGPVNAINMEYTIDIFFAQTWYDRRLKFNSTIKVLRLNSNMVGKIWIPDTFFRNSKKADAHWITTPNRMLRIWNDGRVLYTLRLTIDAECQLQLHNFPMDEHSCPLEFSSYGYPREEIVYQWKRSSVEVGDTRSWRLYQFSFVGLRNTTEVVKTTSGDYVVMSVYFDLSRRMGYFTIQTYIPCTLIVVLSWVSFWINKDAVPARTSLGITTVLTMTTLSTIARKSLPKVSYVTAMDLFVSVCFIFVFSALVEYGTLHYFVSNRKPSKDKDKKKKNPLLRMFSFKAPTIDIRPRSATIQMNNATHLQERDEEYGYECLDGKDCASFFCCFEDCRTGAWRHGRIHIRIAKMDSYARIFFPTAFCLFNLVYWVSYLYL

[6] = target: T1, GABA-A receptor; alpha-1/beta-2/gamma-2 (Homo sapiens); test: Positive allosteric modulation of human GABA-A alpha1beta2gamma2S receptor expressed in Xenopus laevis oocytes assessed as increase in GABA-induced chloride channel current at 100 uM by two-electrode voltage clamp method relative to control; assay type: cell-based
[7] = target: GABA-A receptor; anion channel; test: Displacement of [35S]TBPS from Sprague-Dawley rat brain cortical membrane GABAA receptor incubated for 90 mins by scintillation counting method
[8] = target: T1, GABA-A receptor; alpha-1/beta-2/gamma-2 (Homo sapiens); test: Positive allosteric modulation of recombinant human GABAA alpha1beta2gamma2s receptor expressed in Xenopus laevis oocytes assessed as GABA-stimulated current amplitude at 300 uM measured for 2 min by electrophysiological method relative to control; assay type: cell-based
[9] = species: Homo sapiens; test: Partial agonist activity at human GABA-A alpha4beta3delta receptor expressed in Xenopus laevis oocytes assessed as maximal GABA response by electrophysiology method relative to GABA; assay type: cell-based
[10] = Binding affinity to human GABA-A alpha4beta2delta receptor expressed in Xenopus laevis oocytes; assay type: cell-based
[11] = species: Homo sapiens; test: Selectivity ratio, ratio of EC50 for human GABA-A alpha4beta1delta receptor expressed in Xenopus laevis oocytes to EC50 for human GABA-A alpha4beta2delta receptor expressed in Xenopus laevis oocytes; assay type: cell-based
[12] = target: Gamma-aminobutyric acid receptor subunit alpha-4/beta-1/delta (Homo sapiens) (UniProt P48169+O14764+P18505); test: Partial agonist activity at human GABA-A alpha4beta1delta receptor expressed in Xenopus laevis oocytes assessed as maximal GABA response by electrophysiology method relative to GABA; assay type: cell-based
[13] = species: Homo sapiens; test: Agonist activity at human GABA-A alpha4beta2delta receptor expressed in Xenopus laevis oocytes assessed as maximal GABA response by electrophysiology method relative to GABA; assay type: cell-based
[14] = species: Homo sapiens; test: Selectivity ratio, ratio of EC50 for human GABA-A alpha4beta1delta receptor expressed in Xenopus laevis oocytes to EC50 for human GABA-A alpha4beta3delta receptor expressed in Xenopus laevis oocytes; assay type: cell-based
[15] = Binding affinity to human GABA-A alpha4beta3delta receptor expressed in Xenopus laevis oocytes; assay type: cell-based
[16] = target: T3, GABA-A receptor; alpha-5/beta-3/gamma-2 (Homo sapiens, UniProt P18507+P28472+P31644); test: Inverse agonist activity at recombinant human GABA-A alpha5beta3gamma2 receptor expressed in mouse L(tk-) cells by radioligand binding assay; assay type: cell-based
T3 sequence (P18507 whole entry): T2 sequence (P18507 whole entry)
T3 sequence (P28472 whole entry): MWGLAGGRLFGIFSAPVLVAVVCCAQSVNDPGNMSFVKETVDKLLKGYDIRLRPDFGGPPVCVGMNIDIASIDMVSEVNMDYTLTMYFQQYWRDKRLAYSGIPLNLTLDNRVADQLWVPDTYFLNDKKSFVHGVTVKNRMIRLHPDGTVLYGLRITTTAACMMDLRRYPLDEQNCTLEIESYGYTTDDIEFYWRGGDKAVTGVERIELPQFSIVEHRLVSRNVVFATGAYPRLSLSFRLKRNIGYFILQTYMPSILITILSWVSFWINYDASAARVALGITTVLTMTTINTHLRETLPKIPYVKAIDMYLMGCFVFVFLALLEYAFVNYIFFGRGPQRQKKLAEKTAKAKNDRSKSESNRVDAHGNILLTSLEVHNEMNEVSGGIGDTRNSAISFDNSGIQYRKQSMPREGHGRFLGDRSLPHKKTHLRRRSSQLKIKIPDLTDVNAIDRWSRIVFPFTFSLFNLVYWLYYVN
T3 sequence (P31644 whole entry): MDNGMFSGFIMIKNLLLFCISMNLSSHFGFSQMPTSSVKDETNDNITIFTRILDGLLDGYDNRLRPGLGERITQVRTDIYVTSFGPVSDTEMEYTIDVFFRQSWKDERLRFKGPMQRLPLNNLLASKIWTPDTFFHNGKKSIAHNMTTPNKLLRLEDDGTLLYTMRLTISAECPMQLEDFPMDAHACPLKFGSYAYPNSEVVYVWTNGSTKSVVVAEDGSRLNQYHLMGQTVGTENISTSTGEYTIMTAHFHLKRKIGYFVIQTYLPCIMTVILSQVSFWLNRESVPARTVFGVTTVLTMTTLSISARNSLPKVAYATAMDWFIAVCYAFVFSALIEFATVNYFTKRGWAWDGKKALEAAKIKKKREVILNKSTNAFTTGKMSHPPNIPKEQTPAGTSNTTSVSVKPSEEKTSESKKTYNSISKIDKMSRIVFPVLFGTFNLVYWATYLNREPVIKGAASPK

[17] = target: T4, GABA-A receptor; alpha-5/beta-3/gamma-2 (Homo sapiens) (UniProt P18507+P28472+P31644); test: Inverse agonist activity at recombinant human GABA-A alpha5beta3gamma2 receptor expressed in mouse L(tk-) cells by whole-cell patch-Clamp method; assay type: cell-based
[18] = species: Homo sapiens; test: Positive allosteric modulation of human GABA-A alpha4beta3delta receptor expressed in mouse L(tk-) cells assessed as GABA-induced membrane potential at 10 uM incubated for 2.5 min by FLIPR assay relative to control; assay type: cell-based
[19] = species: Homo sapiens; test: Positive allosteric modulation of human GABAA alpha4beta3gamma2 receptor expressed in mouse L(tk-) cells assessed as GABA-induced membrane potential at 10 uM incubated for 2.5 min by FLIPR assay relative to control; assay type: cell-based
[20] = target: GABA-A receptor; alpha-1/beta-3/gamma-2 (Homo sapiens) (UniProt P14867+P18507+P28472); test: Positive allosteric modulation of human GABA-Aalpha1beta3gamma2 receptor expressed in mouse L(tk-) cells assessed as GABA-induced membrane potential at 10 uM incubated for 2.5 min by FLIPR assay relative to control; assay type: cell-based
[21] = Displacement of [3H]-Flumazenil from GABAA/BZD receptor in Sprague-Dawley rat cerebral cortex incubated for 40 mins by liquid scintillation counting method
[22] = tested on: Xenopus laevis; test: Anaesthetic activity in Xenopus laevis tadpoles assessed as dose causing loss of righting reflex measured every 10 mins up to 120 mins; assay type: functional, organism-based
[23] = species: Homo sapiens; test: Positive allosteric modulation of human GABA-A alpha4beta3delta receptor expressed in mouse L(tk-) cells assessed as GABA-induced membrane potential at 1 uM incubated for 2.5 min by FLIPR assay relative to control; assay type: cell-based
[24] = Oral bioavailability in rat at 3 mg/kg; assay type: ADME, organism-based; conditions: in vivo
[25] = Displacement of [3H]-Flumazenil from GABAA/BZD receptor in rat cortical membranes; assay type: cell membranes
[26] = target: T4, GABA-A receptor; alpha-5/beta-3/gamma-2 (Homo sapiens); test: Inverse agonist activity at recombinant human GABA-A alpha5beta3gamma2 receptor expressed in Xenopus laevis oocytes relative to control; assay type: cell-based
[27] = target: T2, GABA-A receptor; alpha-1/beta-2/gamma-2; test: Positive allosteric modulation of human recombinant GABA-A alpha1beta2gamma2L receptor expressed in Xenopus laevis oocytes by two-electrode voltage clamp method; assay type: cell-based
[28] = target: T1, GABA-A receptor; alpha-1/beta-2/gamma-2 (Homo sapiens); test: Positive allosteric modulation of human recombinant GABA-A alpha1beta2gamma2L receptor expressed in Xenopus laevis oocytes assessed as maximal current response by two-electrode voltage clamp method relative to control; assay type: cell-based

O=c1c2c[nH]c3c(c-2nn1-c1ccc(Cl)cc1)CCCC3
IC50 [1]: 1 nM

c1ccc(-c2nnc3c4ccccc4c(OCc4ccccn4)nn23)cc1
Ki [2]: 1.7 nM

CCCCCc1nsc2[nH]c3ccc(C)cc3c(=O)c12
Ki [3]: 13 nM

CC1(C)O[C@H]1COc1c2ccoc2cc2oc(=O)ccc12 [OXYPEUCEDANIN]
Activity [4]: 547%
EC50 [5]: 25000 nM
Activity [6]: > 20%

CCNC1=Nc2ccc(Cl)cc2C(C)(c2ccccc2)O1 (stereo not drawn) [ETIFOXINE]
IC50 [7]: 6700 nM

c1ccc(COc2nn3c(-c4ccccc4)nnc3c3ccccc23)cc1
Ki [2]: 16 nM

OC1CCCCC1
Activity [8]: 30.1%

COc1ccccc1-c1oc2ccc(C)cc2c(=O)c1O
Imax [9]: 105%
EC50 [10]: 1400 nM
Ratio EC50 [11]: 10
Imax [12]: 61%
Imax [13]: 105%
Ratio EC50 [14]: 10
EC50 [15]: 2500 nM

CCCC(=O)Nc1nsc2[nH]c3ccc(C)cc3c(=O)c12
Ki [3]: 2.8 nM

Cc1cc(-c2nncc3c(C(C)(C)C)c(OCc4ncnn4C)nn23)no1
Ki [16]: 3 nM
Efficacy [17]: -55%

C=C(C)[C@H]1CC[C@H](C)C[C@@H]1O
Activity [8]: 280%

CC1=CCC(C(C)(C)O)CC1 (stereo not drawn)
Activity [8]: 91.2%

O=C(Nc1c(-c2cccs2)nc2c(Br)cc(Br)cn12)c1ccc(Cl)cc1
Activity [18]: 975%
Activity [19]: 306%
Activity [20]: 407%

O=C1C[C@@H](c2ccc(O)cc2)Oc2cc(O)c(-c3c(O)cc(O)c4c(=O)cc(-c5ccc(O)cc5)oc34)c(O)c21
Ki [21]: 45 nM

COc1ccc2ccc(=O)oc2c1CC=C(C)C [OSTHOLE]
Activity [4]: 116%
EC50 [5]: 14000 nM
Activity [6]: > 20%

CC(C)=CCOc1c2ccoc2cc2oc(=O)ccc12
Activity [6]: > 20%

CC(C)C1CCCC(C(C)C)C1O (stereo not drawn)
EC50 [22]: 14000 nM

O=C(Nc1c(-c2cccs2)nc2ccccn12)c1ccc(Cl)cc1
Activity [23]: 126%

COc1c2ccoc2c(OCC=C(C)C)c2oc(=O)ccc12
Activity [6]: > 20%

c1ccc(-c2nnc3c4c(c(OCc5ccccn5)nn23)C2CCC4CC2)cc1
bioavailability [24]: 33%
Ki [2]: 26 nM

O=C1C[C@@H](c2ccc(O)cc2)Oc2c1c(O)cc(O)c2-c1c(O)cc(O)c2c(=O)cc(-c3ccc(O)cc3)oc12
Ki [21]: 280 nM

CC(C)[C@H]1CC[C@@H](C)C[C@@H]1O
Activity [8]: 226%

CCOC(=O)c1cnc2ccc(C(F)(F)F)cc2c1O
Ki [25]: 122 nM

CC(C)=CCOc1c2occc2cc2ccc(=O)oc12
Activity [6]: > 20%

Cc1cc(-c2nnc3c4ccccc4c(OCc4cn(C)nn4)nn23)no1
Efficacy [26]: -29%

CC1CCCC(C)C1O (stereo not drawn)
EC50 [22]: 13100 nM

CCCc1cc2c(=O)c(-c3ccc4c(c3)OCO4)c(CC)oc2cc1OC(=O)CC
EC50 [27]: 9300 nM
Emax [28]: 1080%

CC1(C)O[C@@H]1COc1c2occc2cc2ccc(=O)oc12
Activity [6]: > 20%
